Measured values taken from patent US20260347372A1, “SMALL MOLECULE INHIBITORS OF KRAS G12D MUTANT” (MERCK SHARP & DOHME LLC, priority 2023, published 2026).
pIC50: −log10 of the molar value.

Key:
KRAS G13D = KRAS G13D (Homo sapiens, UniProt P01116, G13D); test: SOS-catalyzed nucleotide exchange assay, KRAS G13D (Procedure A); format: biochemical; settings: GNE
Summary of the method: (§1)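 60 min cpd preinc. w/ RAS–Bodipy-GDP–Tb-SA complex; + hSOS/GTP (3 mM final), RT. G12C 3 nM RAS/40 nM SOS; WT, G12D 1 nM/40 nM; 60 min rxn. G13D 1.25 nM, no SOS, 30 min rxn. HEPES pH 7.5, 10 mM MgCl2. Ratio 520/495, norm. to DMSO/max-inhibitor ctrls.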

KRAS G12V = KRAS G12V (Homo sapiens, UniProt P01116, G12V); test: SOS-catalyzed nucleotide exchange assay, KRAS G12V (Procedure A); format: biochemical; settings: GNE
Summary of the method: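 Biotinylated KRAS G12V was loaded with Bodipy-GDP alongside Terbium-streptavidin to form a TR-FRET complex, which was preincubated with compounds for 60 minutes in 384-well plates. Human SOS protein and unlabeled GTP were then added for 90 minutes, giving final concentrations of 1.25 nM KRAS-G12V, 160 nM SOS and 3 mM GTP. The 520/495 nm emission ratio was read on an Envision.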

AsPC-1 cells = target: T1, AsPC-1 cells (Homo sapiens, UniProt P01116, G12D); test: Cellular phospho-ERK assay, AsPC-1 cells (KRAS G12D); format: cell-based; settings: 2 hours, read-out: AsPC1 pERK IC50
T1 construct: p-ERK/total ERK AlphaSureFire read-out
Summary of the method: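 Compound was titrated 10-point in 3-fold steps (top 30 μM) on KRAS G12D homozygous pancreatic lines PANC08.13 and AsPC-1 for 2 h at 37 °C. The p-ERK/total ERK ratio was measured by multiplex AlphaLISA SureFire and fitted with a 4-parameter logistic model to give IC50.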

KRAS G12D = KRAS G12D (Homo sapiens, UniProt P01116, G12D); test: SOS-catalyzed nucleotide exchange assay, KRAS G12D (Procedure A); format: biochemical; settings: guanine nucleotide exchange (GNE)
Summary of the method: as §1

PANC08.13 cells = target: T2, PANC08.13 cells (Homo sapiens, UniProt P01116, G12D); test: Cellular phospho-ERK assay, PANC08.13 cells (KRAS G12D); format: cell-based; settings: 2 hours, read-out: PANCO 813 pERK IC50
T2 construct: p-ERK/total ERK AlphaSureFire read-out
Description: Procedure for Cellular Phospho-ERK Assay in KRAS Wild Type and Mutant (G12D, G12V) Cell Lines
PANC08.13 cells (ATCC® CRL-2551™), containing homozygous KRAS-G12D activating mutation, were cultured in growth medium made of RPMI1640-GlutaMAX™-I (ThermoFisher Scientific 61870) containing 15% heat inactivated fetal bovine serum (ThermoFisher Scientific 10091148)). AsPC-1 cells (ATCC® CRL-1682™), containing homozygous KRAS-G12D activating mutation, were cultured in T150 flask in growth medium (RPMI medium 1640-GlutaMAX™-I (ThermoFisher Scientific 61870) containing 10% fetal bovine serum (ThermoFisher Scientific 10091148)).
Cells for the assay were harvested in growth medium after TrypLE (ThermoFisher scientific 12604021) digestion and were seeded in a 384-well collagen coated cell culture plate (Corning 356702) at a density of 10,000-15,000 cells/20 μL/well, and incubated at 37° C., 5% CO2 overnight. The compound (with 10 mM stock concentration) dose-response titrations were prepared [30 μM final ERK detection assay concentration and 1:3 dilutions, 10-point dose response] and appropriate amounts (270 nL) of test compounds were dispensed in a 384-well intermediate plate using an Echo 550 liquid handler. 30 μL/well of RPMI medium 1640-GlutaMAX™-I was added to the intermediate plate and the contents of the intermediate plate (10 μL/well) were then transferred to the 384-well collagen coated cell culture plate, which was incubated at 37° C., 5% CO2 for 2 hours. After removal of medium from the collagen coated cell culture plate, cells were lysed in lysis buffer from Alpha SureFire® Ultra™ Multiplex p-ERK and total ERK assay kit (PerkinElmer MPSU-PTERK) containing Halt™ Protease and Phosphatase inhibitor cocktail (ThermoFisher Scientific 78446) at room temperature with constant shaking at 300 rpm for 30 minutes. The cell lysates were then transferred to an OptiPlate-384 plate (PerkinElmer 6005620), and the phosphorylation of ERK (p-ERK) and total ERK levels were detected by Alpha SureFire® Ultra™ Multiplex p-EEK kit and total ERK assay kit (PerkinElmer MPSU-PTERK) following the manufacturer's protocol. Assay plates were read on a EnVision Multimode Plate Reader (PerkinElmer), and the ratio of p-ERK vs. total ERK in each well was used as the final readout. Dose response curves were analyzed using a 4-parameter logistic model to calculate IC50 values using Spotfire software.

NRAS = NRAS (Homo sapiens, UniProt P01111); test: SOS-catalyzed nucleotide exchange assay, NRAS (Procedure A); format: biochemical; settings: GNE
Summary of the method: as §1

KRAS G12C = KRAS G12C (Homo sapiens, UniProt P01116, C118S/C51S/C80L/G12C); test: SOS-catalyzed nucleotide exchange assay, KRAS G12C (Procedure A); format: biochemical; settings: GNE
Summary of the method: as §1

HRAS = HRAS (Homo sapiens, UniProt P01112); test: SOS-catalyzed nucleotide exchange assay, HRAS (Procedure A); format: biochemical; settings: GNE
Summary of the method: as §1

KRAS WT = KRAS WT (Homo sapiens, UniProt P01116); test: SOS-catalyzed nucleotide exchange assay, KRAS WT (Procedure A); format: biochemical; settings: GNE
Summary of the method: as §1

Chain of NRAS (P01111 with tags, fused parts or gaps): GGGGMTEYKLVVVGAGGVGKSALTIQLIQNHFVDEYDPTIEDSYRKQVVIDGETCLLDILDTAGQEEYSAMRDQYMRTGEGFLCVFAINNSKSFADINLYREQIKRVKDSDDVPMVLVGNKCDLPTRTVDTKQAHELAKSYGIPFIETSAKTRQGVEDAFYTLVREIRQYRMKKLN
Chain of KRAS G12V (P01116 with tags, fused parts or gaps isoform P01116-2 G12V): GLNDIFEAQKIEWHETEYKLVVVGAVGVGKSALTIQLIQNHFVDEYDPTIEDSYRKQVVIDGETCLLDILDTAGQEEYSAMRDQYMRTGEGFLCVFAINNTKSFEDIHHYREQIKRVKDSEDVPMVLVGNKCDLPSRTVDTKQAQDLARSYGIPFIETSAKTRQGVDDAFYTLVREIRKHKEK
Chain of KRAS G12C (P01116 with tags, fused parts or gaps isoform P01116-2 G12C/C51S/C80L/C118S): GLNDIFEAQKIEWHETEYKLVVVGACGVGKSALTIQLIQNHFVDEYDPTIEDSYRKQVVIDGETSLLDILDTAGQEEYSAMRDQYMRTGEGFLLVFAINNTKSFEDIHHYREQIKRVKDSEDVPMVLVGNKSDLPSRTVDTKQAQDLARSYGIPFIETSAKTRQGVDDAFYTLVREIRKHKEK
Chain of KRAS G13D (P01116 with tags, fused parts or gaps isoform P01116-2 G13D): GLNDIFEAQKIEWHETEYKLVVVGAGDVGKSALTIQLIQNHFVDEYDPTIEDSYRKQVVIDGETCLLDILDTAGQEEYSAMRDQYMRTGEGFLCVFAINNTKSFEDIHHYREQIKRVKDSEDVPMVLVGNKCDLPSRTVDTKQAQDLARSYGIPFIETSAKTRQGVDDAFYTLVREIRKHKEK
T1 sequence (P01116 1-188 isoform P01116-2 G12D): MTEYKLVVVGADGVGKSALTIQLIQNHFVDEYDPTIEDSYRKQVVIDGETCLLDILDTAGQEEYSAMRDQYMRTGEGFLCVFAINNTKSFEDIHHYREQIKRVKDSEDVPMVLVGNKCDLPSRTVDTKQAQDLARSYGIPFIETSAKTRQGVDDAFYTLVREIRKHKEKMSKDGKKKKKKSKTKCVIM
T2 sequence (P01116 1-188 isoform P01116-2 G12D): as above
Chain of KRAS G12D (P01116 with tags, fused parts or gaps isoform P01116-2 G12D): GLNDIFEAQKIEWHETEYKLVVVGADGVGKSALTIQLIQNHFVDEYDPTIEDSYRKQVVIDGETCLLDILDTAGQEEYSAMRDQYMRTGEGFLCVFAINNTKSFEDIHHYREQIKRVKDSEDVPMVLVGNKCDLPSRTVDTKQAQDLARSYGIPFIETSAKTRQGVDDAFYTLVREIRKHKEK
Chain of HRAS (P01112 with tags, fused parts or gaps): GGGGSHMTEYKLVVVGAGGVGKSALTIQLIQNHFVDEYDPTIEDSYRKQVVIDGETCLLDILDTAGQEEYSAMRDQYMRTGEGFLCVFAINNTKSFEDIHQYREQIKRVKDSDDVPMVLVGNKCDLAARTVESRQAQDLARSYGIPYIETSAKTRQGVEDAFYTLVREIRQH
Chain of KRAS WT (P01116 with tags, fused parts or gaps isoform P01116-2): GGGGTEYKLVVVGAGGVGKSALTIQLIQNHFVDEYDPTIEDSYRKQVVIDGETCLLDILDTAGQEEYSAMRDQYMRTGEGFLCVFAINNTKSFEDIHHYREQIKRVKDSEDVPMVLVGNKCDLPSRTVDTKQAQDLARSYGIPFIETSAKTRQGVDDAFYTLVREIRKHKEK

Row | Compound | pIC50 (KRAS G13D) | pIC50 (KRAS G12V) | pIC50 (AsPC-1 cells) | pIC50 (KRAS G12D) | pIC50 (PANC08.13 cells) | pIC50 (NRAS) | pIC50 (KRAS G12C) | pIC50 (HRAS) | pIC50 (KRAS WT)
1 | Cc1cc2[nH]nc(C#N)c2c(-c2nccc3c4c(N5C[C@H]6CC[C@@H](C5)N6)nc(OC[C@@]56CCCN5C[C@H](F)C6)nc4n(C)c23)c1C(F)(F)F (single isomer, unassigned) [Ex-2] | 5.63 | < 4.95 | 4.82 | 7.36 | 5.79 | < 4.96 | < 4.96 | < 4.96 | < 4.95
2 | C#Cc1c(F)ccc2cc(O)cc(-c3nccc4c5c(N6C[C@H]7CC[C@@H](C6)N7)nc(OC[C@@]67CCCN6C[C@H](F)C7)nc5n(C)c34)c12 [Ex-8, 4-(4-((1R,5S)-3,8-diazabicyclo[3.2.1]octan-3-yl)-2-(((2R,7aS)-2-fluorotetrahydro-1H-pyrrolizin-7a(5H)-yl)methoxy)-9-methyl-9H-pyrido[4′,3′:4,5]pyrrolo[2,3-d]pyrimidin-8-yl)-5-ethynyl-6-fluoronaphthalen-2-ol] | 7.75 | 7.20 | 6.86 | 8.74 | 7.19 | < 4.96 | 7.60 | < 4.96 | 7.32
3 | C#Cc1cccc2cccc(-c3nccc4c3sc3nc(OC[C@@]56CCCN5C[C@H](F)C6)nc(N5C[C@H]6CC[C@@H](C5)N6)c34)c12 [Ex-10, 4-((1R,5S)-3,8-diaza-bicyclo[3.2.1]oc-tan-3-yl)-8-(8-ethynylnaphthalen-1-yl)-2-(((2R,7aS)-2-fluoro-tetrahydro-1H-pyrrolizin-7a(5H)-yl)methoxy)pyri-do[4′,3′:4,5]thi-eno[2,3-d]py-rimidine] | 6.22 | 5.16 | 6.40 | 8.15 | 6.72 | < 4.96 | 6.19 | < 4.96 | 5.31
4 | FC(F)c1c(Cl)cc2[nH]ncc2c1-c1nccc2c1sc1nc(OC[C@@]34CCCN3C[C@H](F)C4)nc(N3C[C@H]4CC[C@@H](C3)N4)c12 [Ex-13, 4-((1R,5S)-3,8-diazabicyclo[3.2.1]octan-3-yl)-8-(6-chloro-5-(difluoromethyl)-1H-indazol-4-yl)-2-(((2R,7aS)-2-fluorotetrahydro-1H-pyrrolizin-7a(5H)-yl)methoxy)pyrido[4′,3′:4,5]thieno [2,3-d]pyrimidine] | 5.74 | 5.08 | 6.23 | 7.86 | 6.66 | < 4.96 | 6.18 | < 4.96 | 5.02

Next, values leading:

Row | pIC50 (KRAS G13D) | pIC50 (KRAS G12V) | pIC50 (AsPC-1 cells) | pIC50 (KRAS G12D) | pIC50 (PANC08.13 cells) | pIC50 (NRAS) | pIC50 (KRAS G12C) | pIC50 (HRAS) | pIC50 (KRAS WT) | Compound
5 | 5.48 | 5.29 | 6.02 | 7.01 | 6.61 | < 4.96 | 6.04 | < 4.96 | 5.03 | Cc1cc2[nH]ncc2c(-c2nccc3c4c(N5C[C@H]6CC[C@@H](C5)N6)nc(OC[C@@]56CCCN5C[C@H](F)C6)nc4n(C)c23)c1C(F)F (single isomer, unassigned) [Ex-3]
6 | 6.14 | 5.68 | 6.70 | 8.19 | 7.05 | < 4.96 | 6.23 | < 4.96 | 5.24 | Cc1cc2[nH]ncc2c(-c2nccc3c2sc2nc(OC[C@@]45CCCN4C[C@H](F)C5)nc(N4C[C@H]5CC[C@@H](C4)N5)c23)c1C(F)(F)F [Ex-12, 4-((1R,5S)-3,8-diazabicyclo[3.2.1]octan-3-yl)-2-(((2R,7aS)-2-fluorotetrahydro-1H-pyrrolizin-7a(5H)-yl)methoxy)-8-(6-methyl-5-(trifluoromethyl)-1H-indazol-4-yl)pyrido[4′,3′:4,5]thieno[2,3-d]pyrimidine]
7 | 5.98 | < 4.95 | 5.66 | 7.63 | 6.60 | < 4.96 | 6.12 | < 4.96 | 5.00 | Cc1cc2[nH]nc(C#N)c2c(-c2nccc3c2sc2nc(OC[C@@]45CCCN4C[C@H](F)C5)nc(N4C[C@H]5CC[C@@H](C4)N5)c23)c1C(F)(F)F [Ex-19, 4-(4-((1R,5S)-3,8-diazabicy-clo[3.2.1]oc-tan-3-yl)-2-(((2R,7aS)-2-fluoro-tetrahydro-1H-pyrrolizin-7a(5H)-yl)methoxy)pyri-do[4′,3′:4,5]thieno [2,3-d]pyrimidin-- 8-yl)-6-methyl-5-(trifluoromethyl)-- 1H-indazole-3-carbonitrile]
